Data published in US20240174690A1, “ANNULATED 2-AMINO-3-CYANO THIOPHENES AND DERIVATIVES FOR THE TREATMENT OF CANCER” (BOEHRINGER INGELHEIM INTERNATIONAL GMBH, priority 2021, published 2024).

Assays:
[1] = Metabolic (microsomal) stability assay, human liver microsomes (HLM); format: in vitro ADME; settings: predicted clearance as percent of liver blood flow, 1 μM
Protocol: The metabolic degradation of the test compound is assayed at 37° C. with pooled liver microsomes (mouse (MLM), rat (RLM) or human (HLM)). The final incubation volume of 48 μL pertime point contains TRIS buffer (pH 7.5; 0.1 M), magnesium chloride (6.5 mM), microsomal protein (0.5 mg/mL for mouse/rat, 1 mg/mL for human specimens) and the test compound at a final concentration of 1 μM. Following a short preincubation period at 37° C., the reactions are initiated by addition of 12 μL beta-nicotinamide adenine dinucleotide phosphate, reduced form (NADPH, 10 mM) and terminated by transferring an aliquot into solvent after different time points (0, 5, 15, 30, 60 min). Additionally, the NADPH-independent degradation is monitored in incubations without NADPH, terminated at the last time point by addition of acetonitrile. The quenched incubations are pelleted by centrifugation (4,000 rpm, 15 min). An aliquot of the supernatant is assayed by LC-MS/MS to quantify the concentration of parent compound in the individual samples.
In vitro intrinsic clearance (CLint, in vitro) is calculated from the time course of the disappearance of the test drug during the microsomal incubation. Each plot is fitted to the first-order elimination rate constant as C(t)═C0*exp(−ke*t), where C(t) and C0 are the concentration of unchanged test drug at incubation time t and that at preincubation and ke is the disappearance rate constant of the unchanged drug. Subsequently, CLint in vitro (μL min^−1·amount protein) values are converted to predicted CLint,in vivo (mL min^−1 kg^−1) from incubation parameters according to the equation CLint, in vivo=CLint, in vitro×(incubation volume (ml)/amount protein (mg))×(amount protein (mg)/g liver tissue)×(liver weight/body wt.).
For better across species comparison the predicted clearance is expressed as percent of the liver blood flow [% QH] (mL min^−1·kg^−1) in the individual species. In general, high stability (corresponding to low % QH) of the compounds across species is desired.

[2] = system: NCI-H2122 cells; experiment: NCI-H2122 CTG proliferation assay (120 h) (NSCLC, G12C); format: cell-based; settings: Homo sapiens
Protocol: NCI-H2122 CTG Proliferation Assay (120 h) (NSCLC, G12C)
The CTG assay is designed to measure quantitatively the proliferation of NCI-H2122 cells (ATCC CRL-5985), using the CellTiter Glow Assay Kit (Promega G7571). Cells are grown in RPMI medium (ATCC) supplemented with Fetal Calf Serum (Life Technologies, Gibco BRL, Cat. No. 10270-106). On “day 0” 200 NCI-H2122 cells are seeded in 60 μL RPMI ATCC+10% FCS+Penstrep in a black 384-well plate, flat and clear bottom (Greiner, PNr. 781091). Cells are then incubated in the plates at 37° C. in a CO2 incubator overnight. On day 1, compounds (10 mM stock in DMSO) are added with the ECHO acoustic liquid handler system (Beckman Coulter), including DMSO controls. Plates are incubated for 120 h, and cell viability is measured using CellTiter-Glo luminescent cell viability reagent (Promega product code G7570). Viability (stated as percent of control) is defined as relative luminescence units RLU of each well divided by the RLU of cells in DMSO controls. IC50 values are determined from viability measurements by non-linear regression using a four parameter model.

[3] = system: KRAS G12C-dependent Ba/F3 cells; experiment: Ba/F3 proliferation assay, KRAS G12C; format: cell-based; settings: Mus musculus, BaF3, 72 h, AlamarBlue
Protocol: Plasmids containing KRASG12 mutants (i.e. […], G12C, G12V) are obtained from GeneScript. To generate KRASG12-dependent Ba/F3 models, Ba/F3 cells are transduced with retroviruses containing vectors that harbor KRASG12 isoforms. Platinum-E cells (Cell Biolabs) are used for retrovirus packaging. Retrovirus is added to Ba/F3 cells. To ensure infection, 4 μg/mL polybrene is added and cells are spinfected. […] Cells with an infection efficiency of 10% to 20% are further cultivated and puromycin selection with 1 μg/mL is initiated. As a control, parental Ba/F3 cells are used to show selection status. Selection is considered successful when parental Ba/F3 cells cultures died. To evaluate the transforming potential of KRASG12 mutations, the growth medium is no longer supplemented with IL-3. Ba/F3 cells harboring the empty vector are used as a control. Approximately ten days before conducting the experiments, puromycin is left out.
Compounds are added using an Access Labcyte Workstation with a Labcyte Echo 550 or 555 accoustic dispenser. All treatments are performed in technical duplicates. […] AlamarBlue™ (ThermoFisher), a viability stain, is added and fluorescence measured in the PerkinElmer Envision HTS Multilabel Reader. The raw data are imported into and analyzed with the Boehringer Ingelheim proprietary software MegaLab (curve fitting based on the program PRISM, GraphPad Inc.).

[4] = system: LOVO cells; experiment: LOVO CTG proliferation assay (120 h) (CRC, G13D); format: cell-based; settings: Homo sapiens, CTG 120 h
Protocol: LOVO CTG Proliferation Assay (120 h) (CRC, G13D)
(§1) LOVO cells (ATCC CCL-229) are dispensed into 384-well plates, flat and clear bottom (Greiner, PNr. 781091) at a density of 1000 cells per well in 60 μL DMEM (Sigma D6429)+10% Fetal Calf Serum (HyClone, PNr.: SH30084.03) and incubated at 37° C. in a CO2 incubator overnight. The next day, compounds (10 mM stock in DMSO) are added with the ECHO acoustic liquid handler system (Beckman Coulter), including DMSO controls. Plates are incubated for 120 h, and cell viability is measured using CellTiter-Glo luminescent cell viability reagent (Promega product code G7570). Viability (stated as percent of control) is defined as relative luminescence units RLU of each well divided by the RLU of cells in DMSO controls. IC50 values are determined from viability measurements by non-linear regression using a four-parameter model.

[5] = system: SAS cells; experiment: SAS CTG proliferation assay (120 h) (HNSCC, wt amplified); format: cell-based
Protocol: SAS CTG Proliferation Assay (120 h) (HNSCC, Wt Amplified)
as §1, with “SAS” for “LOVO”, “(JCRB0260)” for “(ATCC CCL-229)”, “300” for “1000”, “DMEM:F12 (Gibco 31330-038)+10%” for “DMEM (Sigma D6429)+10%”

| HLM QH [1] [%] | IC50 [2] [nM] | IC50 [3] [nM] | IC50 [4] [nM] | Structure (SMILES) | IC50 [5] [nM] |
| --- | --- | --- | --- | --- | --- |
| <24 | 2340 | 47 | 276 | C[C@H](Oc1cc(N2CCOC3(CC3)C2)nc(-c2noc3c2CCC[C@@]32CCCc3sc(N)c(C#N)c32)n1)[C@@H]1CCCN1C [II-61] | 169 |
| 58 | 4790 | 34 | 2320 | CO[C@@H]1C[C@@H]([C@H](C)Oc2cc(-c3cnn(C)n3)nc(-c3noc4c3CCC[C@@]43CCCc4sc(N)c(C#N)c43)n2)N(C)C1 [II-62] | 50 |
| <24 | 3390 | 114 | 640 | C[C@H](Oc1cc(N2Cc3cnn(C)c3C2)nc(-c2noc3c2CCC[C@@]32CCCc3sc(N)c(C#N)c32)n1)[C@@H]1CCCN1C [II-63] | 1310 |
| 27 | 6360 | 9 | 96 | C[C@H](Oc1cc(N2CCNC2=O)nc(-c2noc3c2CCC[C@@]32CCCc3sc(N)c(C#N)c32)n1)[C@@H]1CCCN1C [II-64] | 16 |
| <24 | 2550 | 97 | 289 | C[C@H](Oc1cc(-n2cnc3cccnc32)nc(-c2noc3c2CCC[C@@]32CCCc3sc(N)c(C#N)c32)n1)[C@@H]1CCCN1C [II-65] | 173 |
| <24 | 5010 | 54 | 3680 | C[C@H](Oc1cc(N2CC[C@@H](O)C2)nc(-c2noc3c2CCC[C@@]32CCCc3sc(N)c(C#N)c32)n1)[C@@H]1CCCN1C [II-66] | 60 |
| <24 | 1300 | 28 | 49 | C[C@H](Oc1cc(C2=CCOCC2)nc(-c2noc3c2CCC[C@@]32CCCc3sc(N)c(C#N)c32)n1)[C@@H]1CCCN1C [II-67] | 8 |
| <24 | 1230 | 56 | 894 | Cc1cn(C)nc1-c1cc(O[C@@H](C)[C@@H]2CCCN2C)nc(-c2noc3c2CCC[C@@]32CCCc3sc(N)c(C#N)c32)n1 [II-68] | 623 |
| <24 | 515 | 18 | 52 | C[C@H](Oc1cc(-n2ccnc2)nc(-c2noc3c2CCC[C@@]32CCCc3sc(N)c(C#N)c32)n1)[C@@H]1CCCN1C [II-69] | 102 |
| 61 | 891 | 25 | 77 | C[C@H](Oc1cc(-n2cncn2)nc(-c2noc3c2CCC[C@@]32CCCc3sc(N)c(C#N)c32)n1)[C@@H]1CCCN1C [II-70] | 41 |
| <24 | 933 | 28 | 50 | C[C@H](Oc1cc(-c2cc[nH]n2)nc(-c2noc3c2CCC[C@@]32CCCc3sc(N)c(C#N)c32)n1)[C@@H]1CCCN1C [II-71] | 47 |
| 41 | 2250 | 22 | 55 | C[C@H](Oc1cc(N2CCCC3(COC3)C2)nc(-c2noc3c2CCC[C@@]32CCCc3sc(N)c(C#N)c32)n1)[C@@H]1CCCN1C [II-72] | 206 |
| 53 | 1610 | 10 | 250 | C[C@H](Oc1cc(N2CCCC2=O)nc(-c2noc3c2CCC[C@@]32CCCc3sc(N)c(C#N)c32)n1)[C@@H]1CCCN1C [II-73] | 33 |
| <24 | 2860 | 50 | 319 | C[C@H](Oc1cc(-c2cnn(C)c2)nc(-c2noc3c2CCC[C@@]32CCCc3sc(N)c(C#N)c32)n1)[C@@H]1CCCN1C [II-74] | 192 |
| 38 | 3130 | 26 | 279 | C[C@H](Oc1cc(N2CCN(C)C2=O)nc(-c2noc3c2CCC[C@@]32CCCc3sc(N)c(C#N)c32)n1)[C@@H]1CCCN1C [II-75] | 31 |
| 31 | 1300 | 18 | 51 | C[C@H](Oc1cc(C2CCOCC2)nc(-c2noc3c2CCC[C@@]32CCCc3sc(N)c(C#N)c32)n1)[C@@H]1CCCN1C [II-76] | 66 |
| 34 | 1780 | 14 | 39 | C[C@H](Oc1cc(N2CCOC3(COC3)C2)nc(-c2noc3c2CCC[C@@]32CCCc3sc(N)c(C#N)c32)n1)[C@@H]1CCCN1C [II-77] | 152 |
| 35 | 2140 | 37 | 175 | C[C@H](Oc1cc(-c2ccncc2)nc(-c2noc3c2CCC[C@@]32CCCc3sc(N)c(C#N)c32)n1)[C@@H]1CCCN1C [II-78] | 318 |
| 45 | 1270 | 24 | 106 | Cc1nccn1-c1cc(O[C@@H](C)[C@@H]2CCCN2C)nc(-c2noc3c2CCC[C@@]32CCCc3sc(N)c(C#N)c32)n1 [II-79] | 2590 |
| 30 | 1670 | 21 | 561 | C[C@H](Oc1cc(-c2cncs2)nc(-c2noc3c2CCC[C@@]32CCCc3sc(N)c(C#N)c32)n1)[C@@H]1CCCN1C [II-80] | > 25000 |
| <24 | 1680 | 49 | 289 | CC(=O)N1CC=C(c2cc(O[C@@H](C)[C@@H]3CCCN3C)nc(-c3noc4c3CCC[C@@]43CCCc4sc(N)c(C#N)c43)n2)CC1 [II-81] | 51 |
